Where two headings read alike, the source gives them in different places.
Experiments:
SNL model = assay: Antiallodynic activity in the Chung model (SNL, Spinal Nerve Ligation; von Frey); format: in vivo, Sprague-Dawley rats
Procedure: Male Sprague-Dawley rats (200-220 g, Orient Bio, Korea) were habituated for 1 week before the experiment and allowed free access to food and water throughout the experimentation. Room temperature and humidity were maintained at 24±2° C. and 50±10%, respectively. The neuropathic surgery (SNL, Spinal Nerve Ligation) model was done as described in Kim and Chung (1992). Briefly, an animal was put under gaseous anesthesia with isoflurane and NO2 with a 4:4 flow ratio. The left lumbar spinal nerves L5 and L6 were isolated and tightly ligated with 4-0 silk thread. The wound was treated with a gentamicin antibiotic solution (4 mg/kg, 4 ul/g by bodyweight), and the wound muscle was closed with Catgut® chrome 4/0 thread and the skin was closed with Dafilon 4/0 thread. Sham controls were prepared in the same manner with the spinal nerves were exposed, but no ligated L5 and L6 nerves. Preparation of the vehicle controls were identical to the group treated with compound, except for administration of vehicles without compound in the vehicle control group.
Tactile sensitivity (mechanical allodynia) was evaluated using von Frey monofilaments before and after treatment and animals the animals were included in the study only if the withdrawal threshold value was less than 4 g. One week after surgery, SNL-operated animals (n=4˜6), sham-operated animals (n=4˜10) and vehicle-operated animals (n=4˜13) were tested for tactile sensitivity with von Frey monofilaments with 3 trials in each animal. All animals were placed in a stainless steel mesh chamber and habituated for 30 min in the test cage. The tactile sensitivity for ipsilateral hind paw was measured using the up-and-down method (Dixon, 1980) with seven von Frey monofilaments (0.4, 1, 2, 4, 6, 8, and 15 g) in 3 trials. The tactile sensitivity test was followed by Dixon's method (Dixon, 1980). The 50% paw withdrawal threshold for each paw was calculated using the following formula: [Xth] log=[vFr] log+ky where [vFr] is the force of the last von Frey used, k=0.2249 which is the average interval (in log units) between the von Frey monofilaments, and y is a value that depends upon the pattern of withdrawal responses (Dixon, 1980).
All animals were fasted for 18 h before the administration of the compounds. The antiallodynic effect of the compounds were evaluated at the various doses (n=5˜6), orally administered in a volume of 5 ul/g by bodyweight in a vehicle of 30% (v/v) PEG 400 (Example 7) or 20% (v/v) Tween 80 (Examples 5 and 6) or saline. […]
The relative values compared to the sham group (% control) were calculated and are shown in Table 5, which show an antiallodynic effect of the test compounds in the SNL model in rats.

CFA-induced pain model = assay: Antiallodynic activity on Complete Freund's Adjuvant (CFA)-induced inflammatory pain model (von Frey); format: in vivo, Sprague-Dawley rats; conditions: Rattus norvegicus, ip, read-out: CFA model: effect (%) compared to control
Procedure: Male, Sprague-Dawley rats (200-220 g, Nara Bio, Korea) were habituated for 1 week before surgery and allowed free access to food and water throughout the experimentation. Room temperature and humidity were maintained at 24±2° C. and 50±10%, respectively.
CFA-induced inflammatory pain was induced by the procedure of Nagakura et al. (2003) and Gregory P. et al. (2010) with minor modifications. CFA (sigma, USA) was injected into the left plantar with a 100 ul volume under gaseous anesthesia with isoflurane and NO2 with a 4:4 flow ratio. Sham controls were injected with 100 ul of saline and preparation of the vehicle controls were identical to the group treated with compound, except for administration of vehicles without compound in the vehicle control group.
Tactile sensitivity (mechanical allodynia) was evaluated using von Frey monofilaments before and after treatment, and the animals were included in the study only if the withdrawal threshold value was less than 4 g. One week after surgery, CFA-infused animals (n=4˜6), sham-operated animals (n=12), and vehicle-operated animals (n=17) were tested for tactile sensitivity with von Frey monofilaments, with 3 trials for each animal. All animals were placed in a stainless steel mesh chamber and habituated for 30 min in the test cage. The tactile sensitivity for the ipsilateral hind paw was measured using the up-and-down method (Dixon, 1980) with seven von Frey monofilaments (0.4, 1, 2, 4, 6, 8, and 15 g) in 3 trials. The tactile sensitivity test was followed by Dixon's method (Dixon, 1980). The 50% paw withdrawal threshold for each paw was calculated using the following formula: [Xth] log=[vFr] log+ky where [vFr] is the force of the last von Frey used, k=0.2249 which is the average interval (in log units) between the von Frey monofilaments, and y is a value that depends upon the pattern of the withdrawal responses (Dixon, 1980).
The antiallodynic effect of the compound of Example was evaluated at the doses of 10, 30 and 60 mg/kg (n=4˜6), and were intraperitoneally administered in a volume of 5 ul/g by bodyweight in a vehicle of 30% (v/v) PEG. […]
The relative values compared to the sham (% control) were calculated and are shown in Table 4, which show an antiallodynic effect of the compound of examples in the CFA-induced pain model in rats.

[1] = test system: Post operation-induced pain model; assay: Antiallodynic activity on post operative pain-induced pain model (von Frey); format: in vivo, Sprague-Dawley rats; conditions: rat, intraperitoneal, 18.9 mg/kg administered, time not given
Procedure: Male Sprague-Dawley rats (Orient Bio, Korea), 300-320 g, total of 201 rats were used (details in Table 7). Rats were habituated at least 3 days before surgery and free access to food and water (room temperature and humidity were maintained at […] and 50±10%, respectively). The process of performing the post-operation model's surgery was adapted from Brennan et al (1996). At first, rats with allodynia (threshold valueless than 8 g) were excluded in Pre-von Frey Test. During the post-operation surgery, rats were anesthetized under gaseous anesthesia with 2% isoflurane. Rats were laid face down on a plate fixed at 37° C. to prevent against hypothermia. The ipsilateral plantar aspect (left side) of the hind paw was prepared in a sterile manner with a 10% povidone-iodine solution. A longitudinal incision (1 cm) (FIG. 2-A) was made with a blade (number 11) through the skin and fascia of the ipsilateral plantar aspect of the foot, starting from 0.5 cm below the proximal edge of the heel and extending toward the toes. Rats' plantar muscles were elevated and incised longitudinally (FIG. 2-B). After hemostasis with gentle pressure, the skin was opposed with 2 mattress sutures (4-0 Dafilon) (FIG. 2-C). The wound site was covered with a 10% povidone-iodine solution gauze and injected with antibiotics (gentamicin, 8 mg/kg, ip). The sutures were removed under halothane anesthesia approximately 30 hours later, at the end of post-operative day 1.
After 2-3 days of recovery, rats with a good response (threshold less than 4 g) in Pre-von Frey Test were selected. According to this response, we made three groups with each group having equal average responses: Group 1, post-operation and drug treated; Group 2, post-operation and vehicle treated; Group 3, no post-operation and vehicle treated. In this study, Group 3 was the sham control (positive) group. The group 2 was used to check for possible failures to generate post-operative pain.
For efficacy measure, the threshold value of group C was assigned 100% efficacy, and the percentage of the threshold values of group A compared to group C (for each different dose level) were calculated as the efficacies. Base on these efficacy values, ED50 was calculated using log fitting. If there was no clear ED50, then we marked the percent efficacy at the highest tested dose or larger than highest tested dose.
For pain threshold test, all animals were placed in a stainless steel meshed chamber and habituated for 30 min in the test box. The tactile sensitivity of the ipsilateral hind paw was measured using the up-and-down method (Dixon, 1980) with seven von Frey monofilaments (0.4, 1, 2, 4, 6, 8, and 15 g) using 3 trials. The 50% paw withdrawal threshold for each paw was calculated using the following formula: [Xth] log=[vFr] log+ky, where [vFr] is the force of the last von Frey filament used, k=0.2249 which is the average interval (in log units) between the von Frey monofilaments, y which is a value that depends upon the pattern of withdrawal responses, and Xth which is the threshold value (Dixon, 1980).
Drugs were dissolved 30% PEG400 for example 60, 0.9% saline for Pregabalin, 20% Tween80 for Tylenol, 0.9% saline for Topiramate. These vehicles were selected depending on the compound's solubility. Intraperitoneal injection (5 μl/g) was done for all drugs.
The relative values compared to the sham (% control) were calculated and shown in Table 8, which show an antiallodynic effect of the compound of examples on Post operation-induced pain model in rats.

[2] = test system: acetic acid-induced writhes; assay: Writhing test (acetic acid); format: in vivo, ICR mice; conditions: mouse, oral
Procedure: To examine the pain relief effect of the sulfamate derivative compounds, a writhing test was referring to Fischer, L. G. et al. (2008).
ICR mice (male, 24-28 g; Orient Bio, Korea) were habituated before test in test room for 1 hour. Animals were fasted for 2 hr before administration of compounds. […] All compounds were dissolved in a vehicle of 30% (v/v) PEG 400 or 20% (v/v) Tween 80. The control group was treated with the vehicle without compounds.
[…] Animals were habituated in the cage for 5 min. 5 min after habituation, the number of writhes (abdominal constriction) was counted for 15 minutes referring to Korzeniewska-Rybicka, I. et al. (1998) and compared with that of the control.

[3] = Rattus norvegicus, po, read-out: SNL model: effect (%) compared to control, rat, oral, 3.5 mg/kg administered, time not given

## [NH-]S(=O)(=O)OCC1OC2(CCCC2)Oc2ccc(Cl)cc21.[Na+] (stereo not shown) [Example 67, Sodium ((6-chloro-(4H-spiro[benzo[d][1,3]dioxine-2,1′-cyclopentan]-4-yl)methoxy)sulfonyl)amide]
SNL model; [3]
  response vs control in vivo at 3.5 mg/kg: 49.1%
other
  melting point: 68.6 to 72.3 °C

## CC1(C)Oc2ccc(Cl)cc2C(COS([NH-])(=O)=O)O1.[Na+] (stereo not shown) [Example 63, Sodium (((6-chloro-2,2-dimethyl-4H-benzo[d][1,3]dioxin-4-yl)methoxy)sulfonyl)amide]
CFA-induced pain model
  response vs control in vivo at 25 mg/kg: 16.9%
SNL model; [3]
  response vs control in vivo at 3.5 mg/kg: 32.9%
[1]
  Post Operation: effect (%) compared to control: (26.6%)
other
  melting point: 129.3 to 132.3 °C

## [NH-]S(=O)(=O)OC[C@@H]1OC2(CCCC2)Oc2ccccc21.[Na+] [Example 64, Sodium (R)-(((4H-spiro[benzo[d][1,3]dioxine-2,1′-cyclopentan]-4-yl)methoxy)sulfonyl)amide]
SNL model; [3]
  response vs control in vivo at 3.5 mg/kg: 22.5%
other
  melting point: 132.9 to 134.9 °C

## CC1(C)Oc2ccc(Cl)cc2[C@@H](COS([NH-])(=O)=O)O1.[Na+] [Example 62, Sodium (S)-(((6-chloro-2,2-dimethyl-4H-benzo[d][1,3]dioxin-4-yl)methoxy)sulfonyl)amide]
SNL model; [3]
  response vs control in vivo at 3.5 mg/kg: 32.6%
other
  melting point: 133.8 to 135.3 °C

## CC1(C)Oc2ccccc2[C@H](COS(N)(=O)=O)O1 [Example 1, ((R)-2,2-dimethyl-4H-benzo[d][1,3]dioxin-4-yl)methyl sulfamate]
SNL model; rat, oral, 1 h, read-out: SNL model: ED50
  ED50: 9.9 mg/kg
[2]; 0.25 h, read-out: Writh test: ED50
  ED50: 56.8 mg/kg

## CC1(C)Oc2ccccc2C(COS(N)(=O)=O)O1 (racemic) [Example 3, (2,2-dimethyl-4H-benzo[d][1,3]dioxin-4-yl))methyl sulfamate]
SNL model; rat, oral, 3.5 mg/kg administered, 0.5 h, read-out: SNL model: effect (%) compared to control
  response vs control in vivo at 3.5 mg/kg: 35%
[2]; 80 mg/kg administered, 0.5 h
  Writh test: effect (%) compared to control: (63.9%, 0.5 h)

## [NH-]S(=O)(=O)OCC1OC2(CCCC2)Oc2ccccc21.[Na+] (stereo not shown) [Example 66, Sodium (((4H-spiro[benzo[d][1,3]dioxine-2,1′-cylcopentan]-4-yl)methoxy)sulfonyl)amide]
SNL model; Rattus norvegicus, po, 0.5 h, read-out: SNL model: effect (%) compared to control, rat, oral, 3.5 mg/kg administered, 0.5 h
  response vs control in vivo at 3.5 mg/kg: 59.5%
other
  melting point: 145.5 to 148.9 °C

From patent US10081615B2, “Sulfamate derivative compounds for use in treating or alleviating pain” (Bio-Pharm Solutions Co., Ltd., priority 2013, dated 2018)
